Legend:
[1] = system: MOLM-14 D835Y (endogenous FLT3 ITD and transfected FLT3 D835Y); assay: MOLM-14 D835Y cell proliferation assay (CellTiter-Glo); format: cell-based; settings: Homo sapiens, MOLM-14, 72 h; 3 d growth, GMean
In short: (§1)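 MOLM-14 cells (FLT3 ITD) carrying D835Y or F691L, 1×10^4 cells/well, eight 1:3 dilutions from 1 μM final, 0.2% DMSO, 3 days at 37 °C, 5% CO2. Viability by CellTiter-Glo luminescence (ATP content); IC50 from concentration-response.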

[2] = system: MOLM-14 F691L (endogenous FLT3 ITD and transfected FLT3 F691L); assay: MOLM-14 F691L cell proliferation assay (CellTiter-Glo); format: cell-based; settings: Homo sapiens, MOLM-14, 72 h; 3 d growth, GMean
In short: as §1

| IC50 [1] | IC50 [2] | SMILES |
| --- | --- | --- |
| 0.0001 to 10 µM | 0.0001 to 10 µM | O=C(Cc1ccc(-c2cnc(Nc3cnn(C(F)F)c3)nc2)c(F)c1)Nc1cc(C(F)(F)F)ccn1 [Compound P-0024, 2-[4-[2-[[1-(difluoromethyl)pyrazol-4-yl]amino]pyrimidin-5-yl]-3-fluoro-phenyl]-N-[4-(trifluoromethyl)-2-pyridyl]acetamide] |
| 0.0001 to 10 µM | 0.0001 to 10 µM | COc1ncc(NC(=O)Cc2ccc(-c3cnc(Nc4cn[nH]c4)nc3)cc2)cc1C(F)(F)F [Compound P-0025, N-[6-methoxy-5-(trifluoromethyl)-3-pyridyl]-2-[4-[2-(1H-pyrazol-4-ylamino)pyrimidin-5-yl]phenyl]acetamide] |
| 0.0001 to 10 µM | 0.0001 to 10 µM | COc1ncc(NC(=O)Cc2ccc(-c3cnc(Nc4cn[nH]c4)nc3)cc2F)cc1C(F)(F)F [Compound P-0026, 2-[2-fluoro-4-[2-(1H-pyrazol-4-ylamino)pyrimidin-5-yl]phenyl]-N-[6-methoxy-5-(trifluoromethyl)-3-pyridyl]acetamide] |
| 0.0001 to 10 µM | 0.0001 to 10 µM | Cc1ncc(NC(=O)Cc2ccc(-c3cnc(Nc4cn[nH]c4)nc3)cc2F)cc1C(F)(F)F [Compound P-0027, 2-[2-fluoro-4-[2-(1H-pyrazol-4-ylamino)pyrimidin-5-yl]phenyl]-N-[6-methyl-5-(trifluoromethyl)-3-pyridyl]acetamide] |
| – | 0.0001 to 10 µM | O=C(Cc1ccc(-c2cnc3[nH]c(Cl)cc3c2)cc1F)Nc1ccnc(C(F)(F)F)c1 [Compound P-0030, 2-[4-(2-chloro-1H-pyrrolo[2,3-b]pyridin-5-yl)-2-fluoro-phenyl]-N-[2-(trifluoromethyl)-4-pyridyl]acetamide] |
| 0.0001 to 10 µM | – | CC(=O)c1c[nH]c2ncc(-c3ccc(CC(=O)Nc4ccnc(C(F)(F)F)c4)c(F)c3)cc12 [Compound P-0031, 2-(4-(3-acetyl-1H-pyrrolo[2,3-b]pyridin-5-yl)-2-fluorophenyl)-N-(2-(trifluoromethyl)pyridin-4-yl)acetamide] |
| 0.0001 to 10 µM | 0.0001 to 10 µM | O=C(Cc1ccc(-c2cnc3[nH]cc(C(=O)C4CC4)c3c2)cc1F)Nc1ccnc(C(F)(F)F)c1 [Compound P-0032, 2-[4-[3-(cyclopropanecarbonyl)-1H-pyrrolo[2,3-b]pyridin-5-yl]-2-fluoro-phenyl]-N-[2-(trifluoromethyl)-4-pyridyl]acetamide] |
| 0.0001 to 10 µM | 0.0001 to 10 µM | O=C(Cc1ccc(-c2cnc(Nc3cnn4ccccc34)nc2)cc1F)Nc1ccnc(C(F)(F)F)c1 [Compound P-0033, 2-[2-fluoro-4-[2-(pyrazolo[1,5-a]pyridin-3-ylamino)pyrimidin-5-yl]phenyl]-N-[2-(trifluoromethyl)-4-pyridyl]acetamide] |
| 0.0001 to 10 µM | 0.0001 to 10 µM | COc1ncc(NC(=O)Cc2ccc(-c3cnc4[nH]cc(F)c4c3)cc2F)cc1C(F)(F)F [Compound P-0034, 2-[2-fluoro-4-(3-fluoro-1H-pyrrolo[2,3-b]pyridin-5-yl)phenyl]-N-[6-methoxy-5-(trifluoromethyl)-3-pyridyl]acetamide] |
| 0.0001 to 10 µM | 0.0001 to 10 µM | COc1ncc(NC(=O)Cc2ccc(-c3cnc4[nH]cc(C(C)=O)c4c3)cc2F)cc1C(F)(F)F [Compound P-0035, 2-[4-(3-acetyl-1H-pyrrolo[2,3-b]pyridin-5-yl)-2-fluoro-phenyl]-N-[6-methoxy-5-(trifluoromethyl)-3-pyridyl]acetamide] |
| 0.0001 to 10 µM | – | COc1ncc(NC(=O)Cc2ccc(-c3cnc4[nH]cc(C(=O)C5CC5)c4c3)cc2F)cc1C(F)(F)F [Compound P-0036, 2-[4-[3-(cyclopropanecarbonyl)-1H-pyrrolo[2,3-b]pyridin-5-yl]-2-fluoro-phenyl]-N-[6-methoxy-5-(trifluoromethyl)-3-pyridyl]acetamide] |
| 0.0001 to 10 µM | 0.0001 to 10 µM | COc1ncc(NC(=O)Cc2ccc(-c3cnc(Nc4cnn5ccccc45)nc3)cc2F)cc1C(F)(F)F [Compound P-0037, 2-[2-fluoro-4-[2-(pyrazolo[1,5-a]pyridin-3-ylamino)pyrimidin-5-yl]phenyl]-N-[6-methoxy-5-(trifluoromethyl)-3-pyridyl]acetamide] |
| 0.0001 to 10 µM | 0.0001 to 10 µM | COc1ncc(NC(=O)Cc2ccc(-c3cnc4[nH]c(Cl)cc4c3)cc2F)cc1C(F)(F)F [Compound P-0038, 2-[4-(2-chloro-1H-pyrrolo[2,3-b]pyridin-5-yl)-2-fluoro-phenyl]-N-[6-methoxy-5-(trifluoromethyl)-3-pyridyl]acetamide] |
| 0.0001 to 10 µM | 0.0001 to 10 µM | CC(C)(C)c1ccc(NC(=O)Cc2ccc(-c3cnc4[nH]cc(F)c4c3)cc2F)cn1 [Compound P-0043, N-(6-tert-butyl-3-pyridyl)-2-[2-fluoro-4-(3-fluoro-1H-pyrrolo[2,3-b]pyridin-5-yl)phenyl]acetamide] |
| 0.0001 to 10 µM | 0.0001 to 10 µM | O=C(Cc1ccc(-c2cnc3[nH]cc(F)c3c2)cc1F)Nc1cc(Cl)c(C2CC2)cn1 [Compound P-0044, N-(4-chloro-5-cyclopropyl-2-pyridyl)-2-[2-fluoro-4-(3-fluoro-1H-pyrrolo[2,3-b]pyridin-5-yl)phenyl]acetamide] |
| 0.0001 to 10 µM | 0.0001 to 10 µM | COc1ncc(NC(=O)Cc2ccc(-c3cnc4[nH]cc(Cl)c4n3)cc2F)cc1C(F)(F)F [Compound P-0047, 2-[4-(7-chloro-5H-pyrrolo[2,3-b]pyrazin-2-yl)-2-fluoro-phenyl]-N-[6-methoxy-5-(trifluoromethyl)-3-pyridyl]acetamide] |
| 0.0001 to 10 µM | 0.0001 to 10 µM | COc1nn(C[C@H](C)O)cc1Nc1ncc(-c2ccc(CC(=O)Nc3cncc(C(F)(F)F)c3)c(F)c2)cn1 [Compound P-0050, 2-[2-fluoro-4-[2-[[1-[(2S)-2-hydroxypropyl]-3-methoxy-pyrazol-4-yl]amino]pyrimidin-5-yl]phenyl]-N-[5-(trifluoromethyl)-3-pyridyl]acetamide] |
| 0.0001 to 10 µM | 0.0001 to 10 µM | Cn1cnc(Nc2ncc(-c3ccc(CC(=O)Nc4cncc(C(F)(F)F)c4)c(F)c3)cn2)c1 [Compound P-0052, 2-[2-fluoro-4-[2-[(1-methylimidazol-4-yl)amino]pyrimidin-5-yl]phenyl]-N-[5-(trifluoromethyl)-3-pyridyl]acetamide] |
| 0.0001 to 10 µM | 0.0001 to 10 µM | O=C(Cc1ccc(-c2cnc3[nH]cc(F)c3c2)cc1F)Nc1cncc(C(F)(F)F)c1 [Compound P-0053, 2-[2-fluoro-4-(3-fluoro-1H-pyrrolo[2,3-b]pyridin-5-yl)phenyl]-N-[5-(trifluoromethyl)-3-pyridyl]acetamide] |
| 0.0001 to 10 µM | 0.0001 to 10 µM | CC(=O)c1c[nH]c2ncc(-c3ccc(CC(=O)Nc4cncc(C(F)(F)F)c4)c(F)c3)cc12 [Compound P-0055, 2-[4-(3-acetyl-1H-pyrrolo[2,3-b]pyridin-5-yl)-2-fluoro-phenyl]-N-[5-(trifluoromethyl)-3-pyridyl]acetamide] |
| 0.0001 to 10 µM | 0.0001 to 10 µM | Cc1ncc(NC(=O)Cc2ccc(-c3cnc4c(c3)C3(CC3)C(=O)N4)cc2F)cc1C(F)(F)F [Compound P-0057, 2-[2-fluoro-4-(2-oxospiro[1H-pyrrolo[2,3-b]pyridine-3,1′-cyclopropane]-5-yl)phenyl]-N-[6-methyl-5-(trifluoromethyl)-3-pyridyl]acetamide] |
| 0.0001 to 10 µM | 0.0001 to 10 µM | O=C(Cc1ccc(-c2cnc(Nc3cnn4ccccc34)nc2)cc1F)Nc1cncc(C(F)(F)F)c1 [Compound P-0058, 2-[2-fluoro-4-[2-(pyrazolo[1,5-a]pyridin-3-ylamino)pyrimidin-5-yl]phenyl]-N-[5-(trifluoromethyl)-3-pyridyl]acetamide] |
| 0.0001 to 10 µM | 0.0001 to 10 µM | Cc1ncc(NC(=O)Cc2ccc(-c3cnc4[nH]cc(Cl)c4n3)cc2F)cc1C(F)(F)F [Compound P-0059, 2-[4-(7-chloro-5H-pyrrolo[2,3-b]pyrazin-2-yl)-2-fluoro-phenyl]-N-[6-methyl-5-(trifluoromethyl)-3-pyridyl]acetamide] |
| 0.0001 to 10 µM | 0.0001 to 10 µM | O=C(Cc1ccc(-c2cnc3[nH]cc(Cl)c3n2)cc1F)Nc1cnc(Cl)c(C(F)(F)F)c1 [Compound P-0060, 2-[4-(7-chloro-5H-pyrrolo[2,3-b]pyrazin-2-yl)-2-fluoro-phenyl]-N-[6-chloro-5-(trifluoromethyl)-3-pyridyl]acetamide] |
| 0.0001 to 10 µM | 0.0001 to 10 µM | O=C(Cc1ccc(-c2cnc3[nH]cc(Cl)c3n2)cc1F)Nc1cncc(C(F)(F)F)c1 [Compound P-0061, 2-[4-(7-chloro-5H-pyrrolo[2,3-b]pyrazin-2-yl)-2-fluoro-phenyl]-N-[5-(trifluoromethyl)-3-pyridyl]acetamide] |
| 0.0001 to 10 µM | 0.0001 to 10 µM | Cc1ncc(NC(=O)Cc2ccc(-c3cnc4[nH]cc(F)c4c3)cc2F)cc1C(F)(F)F [Compound P-0062, 2-[2-fluoro-4-(3-fluoro-1H-pyrrolo[2,3-b]pyridin-5-yl)phenyl]-N-[6-methyl-5-(trifluoromethyl)-3-pyridyl]acetamide] |
| 0.0001 to 10 µM | – | O=C(Cc1ccc(-c2cnc3c(c2)C2(CC2)C(=O)N3)cc1F)Nc1cncc(C(F)(F)F)c1 [Compound P-0064, 2-(2-fluoro-4-(2′-oxo-1′,2′-dihydrospiro[cyclopropane-1,3′-pyrrolo[2,3-b]pyridin]-5′-yl)phenyl)-N-(5-(trifluoromethyl)pyridin-3-yl)acetamide] |
| 0.0001 to 10 µM | – | O=C(Cc1cc(F)c(-c2cnc(Nc3cnn4ccccc34)nc2)cc1F)Nc1cncc(C(F)(F)F)c1 [Compound P-0075, 2-[2,5-difluoro-4-[2-(pyrazolo[1,5-a]pyridin-3-ylamino)pyrimidin-5-yl]phenyl]-N-[5-(trifluoromethyl)-3-pyridyl]acetamide] |
| – | 0.0001 to 10 µM | Cn1cc(Nc2ncc(-c3ccc(CC(=O)NCc4ccc(C(F)(F)F)cn4)cc3)cn2)cn1 [Compound P-0162, 2-[4-[2-[(1-methylpyrazol-4-yl)amino]pyrimidin-5-yl]phenyl]-N-[[5-(trifluoromethyl)-2-pyridyl]methyl]acetamide] |

Source: patent publication US10160747B2, “Compounds and methods for kinase modulation, and indications therefor” (Plexxikon Inc., priority 2016, dated 2018)
